A melting point of 166 to 170 °C was found for `COC(=O)c1nc(-c2cnco2)cc(N)c1Cl` [Compound 7, methyl 4-amino-3-chloro-6-(5-oxazolyl)pyridine-2-carboxylate] in this work. A melting point of 224 °C was found for `COC(=O)c1nc(-c2nc3ccccc3s2)cc(N)c1Cl` [Compound 9, Methyl 4-amino-3-chloro-6-(2-benzthiazolyl)pyridine-2-carboxylate] in this work. A melting point of 239 to 241 °C was found for `COC(=O)c1nc(-c2nnnn2C)cc(N)c1Cl` [Compound 10, Methyl 4-amino-3-chloro-6-(1-methyl-1H-tetrazol-5-yl)pyridine-2-carboxylate] in this work. A melting point of 250 to 252 °C was found for `COC(=O)c1nc(-c2nnn(C)n2)cc(N)c1Cl` [Compound 11, Methyl 4-amino-3-chloro-6-(2-methyl-2H-tetrazol-5-yl)pyridine-2-carboxylate] in this work. A melting point of 233 to 236 °C was found for `COC(=O)c1nc(-c2ccc(Cl)cc2)c(F)c(N)c1Cl` [Compound 14, Methyl 4-amino-3-chloro-5-fluoro-6-(4-chlorophenyl)pyridine-2-carboxylate] in this work. A melting point of 107 to 109 °C was found for `COC(=O)c1nc(-c2ccc(OC)cc2)c(Cl)c(N)c1Cl` [Compound 15, Methyl 4-amino-3,5-dichloro-6-(4-methoxyphenyl)pyridine-2-carboxylate] in this work. A melting point of 122 to 123 °C was found for `COC(=O)c1nc(-c2cccc(OC)c2)cc(N)c1Cl` [Compound 24, Methyl 4-amino-3-chloro-6-(3-methoxyphenyl)pyridine-2-carboxylate] in this work. A melting point of 115 to 117 °C was found for `COC(=O)c1nc(-c2ccccc2Cl)cc(N)c1Cl` [Compound 26, Methyl 4-amino-3-chloro-6-(2-chlorophenyl)pyridine-2-carboxylate] in this work. A melting point of 146 to 148 °C was found for `COC(=O)c1nc(-c2ccc(C(C)=O)cc2)cc(N)c1Cl` [Compound 31, Methyl 4-amino-3-chloro-6-(4-acetylphenyl)pyridine-2-carboxylate] in this work. A melting point of 191 to 192 °C was found for `COC(=O)c1nc(-c2cc(Br)ccc2OC)cc(N)c1Cl` [Compound 32, Methyl 4-amino-3-chloro-6-(5-bromo-2-methoxyphenyl)pyridine-2-carboxylate] in this work. A melting point of 92 to 93 °C was found for `COC(=O)c1nc(-c2ccc(C(C)C)cc2)cc(N)c1Cl` [Compound 35, Methyl 4-amino-3-chloro-6-(4-isopropylphenyl)pyridine-2-carboxylate] in this work. A melting point of 121 to 122 °C was found for `COC(=O)c1nc(-c2ccccc2F)cc(N)c1Cl` [Compound 37, Methyl 4-amino-3-chloro-6-(2-fluorophenyl)pyridine-2-carboxylate] in this work. A melting point of 155 to 156 °C was found for `COC(=O)c1nc(-c2ccc(Cl)c(C)c2)cc(N)c1Cl` [Compound 38, Methyl 4-amino-3-chloro-6-(4-chloro-3-methylphenyl)pyridine-2-carboxylate] in this work. A melting point of 170 °C was found for `COC(=O)c1nc(-c2ccc(Cl)c(Cl)c2)cc(N)c1Cl` [Compound 40, Methyl 4-amino-3-chloro-6-(3,4-dichlorophenyl)pyridine-2-carboxylate] in this work. A melting point of 106 to 108 °C was found for `COC(=O)c1nc(-c2ccc(C=O)cc2)cc(N)c1Cl` [Compound 41, Methyl 4-amino-3-chloro-6-(4-formylphenyl)pyridine-2-carboxylate] in this work. A melting point of 139 to 140 °C was found for `COC(=O)c1nc(-c2cccc(C#N)c2)cc(N)c1Cl` [Compound 42, Methyl 4-amino-3-chloro-6-(3-cyanophenyl)pyridine-2-carboxylate] in this work. A melting point of 139 to 140 °C was found for `COC(=O)c1nc(-c2cc(C(F)(F)F)cc(C(F)(F)F)c2)cc(N)c1Cl` [Compound 46, Methyl 4-amino-3-chloro-6-(3,5-bis-(trifluoromethyl)phenyl)pyridine-2-carboxylate] in this work. A melting point of 162 to 163 °C was found for `COC(=O)c1nc(-c2ccc(F)cc2Cl)cc(NC(C)=O)c1Cl` [Compound 54, Methyl 4-acetamido-3-chloro-6-(2-chloro-4-fluorophenyl)pyridine-2-carboxylate] in this work. A melting point of 156 to 157 °C was found for `COC(=O)c1nc(-c2c(F)cccc2F)cc(NC(C)=O)c1Cl` [Compound 55, Methyl 4-acetamido-3-chloro-6-(2,6-difluorophenyl)pyridine-2-carboxylate] in this work. A melting point of 119 to 120 °C was found for `COC(=O)c1nc(-c2ccc(OC(F)(F)F)cc2)cc(N)c1Cl` [Compound 56, Methyl 4-amino-3-chloro-6-[4-(trifluoromethoxy)phenyl]pyridine-2-carboxylate] in this work. A melting point of 143 °C was found for `COC(=O)c1nc(-c2cc(Cl)ccc2Cl)cc(NC(C)=O)c1Cl` [Compound 57, Methyl 4-acetamido-3-chloro-6-(2,5-dichlorophenyl)pyridine-2-carboxylate] in this work. A melting point of 156 to 157 °C was found for `COC(=O)c1nc(-c2ccc(Cl)c(F)c2)cc(NC(C)=O)c1Cl` [Compound 60, Methyl 4-acetamido-3-chloro-6-(4-chloro-3-fluorophenyl)pyridine-2-carboxylate] in this work. A melting point of 149 to 151 °C was found for `COC(=O)c1nc(-c2ccc(Cl)c(F)c2)cc(N)c1Cl` [Compound 61, Methyl 4-amino-3-chloro-6-(4-chloro-3-fluorophenyl)pyridine-2-carboxylate] in this work. A melting point of 153 to 154 °C was found for `COC(=O)c1nc(-c2ccc(OC)c(OC)c2)cc(NC(C)=O)c1Cl` [Compound 63, Methyl 4-acetamido-3-chloro-6-(3,4-dimethoxyphenyl)pyridine-2-carboxylate] in this work. A melting point of 126 to 127 °C was found for `COC(=O)c1nc(-c2ccc(OC)c(OC)c2)cc(N)c1Cl` [Compound 64, Methyl 4-amino-3-chloro-6-(3,4-dimethoxyphenyl)pyridine-2-carboxylate] in this work. A melting point of 176 to 178 °C was found for `COC(=O)c1nc(-c2ccc(Cl)cc2OC)cc(NC(C)=O)c1Cl` [Compound 66, Methyl 4-acetamido-3-chloro-6-(4-chloro-2-methoxyphenyl)pyridine-2-carboxylate] in this work. A melting point of 152 to 154 °C was found for `COC(=O)c1nc(-c2ccc(Cl)cc2OC)cc(N)c1Cl` [Compound 68, Methyl 4-amino-3-chloro-6-(4-chloro-2-methoxyphenyl)pyridine-2-carboxylate] in this work. A melting point of 120 to 122 °C was found for `COCc1cc(-c2cc(NC(C)=O)c(Cl)c(C(=O)OC)n2)ccc1Cl` [Compound 70, Methyl 4-acetamido-3-chloro-6-(4-chloro-3-methoxymethylphenyl)pyridine-2-carboxylate] in this work. A melting point of 73 to 74 °C was found for `COCc1cc(-c2cc(N)c(Cl)c(C(=O)OC)n2)ccc1Cl` [Compound 71, Methyl 4-amino-3-chloro-6-(4-chloro-3-methoxymethylphenyl)pyridine-2-carboxylate] in this work. A melting point of 195 to 196 °C was found for `COC(=O)c1nc(-c2ccc3c(c2Cl)OCO3)cc(NC(C)=O)c1Cl` [Compound 72, Methyl 4-acetamido-3-chloro-6-(2-chloro-3,4-methylenedioxyphenyl)pyridine-2-carboxylate] in this work. A melting point of 155 to 156 °C was found for `COC(=O)c1nc(-c2ccc3c(c2Cl)OCO3)cc(N)c1Cl` [Compound 73, Methyl 4-amino-3-chloro-6-(2-chloro-3,4-methylenedioxyphenyl)pyridine-2-carboxylate] in this work. A melting point of 132 to 134 °C was found for `COC(=O)c1nc(-c2ccc3c(c2)CCC3)cc(NC(C)=O)c1Cl` [Compound 74, Methyl 4-acetamido-3-chloro-6-(5-indanyl)pyridine-2-carboxylate] in this work. A melting point of 165 to 166 °C was found for `COC(=O)c1nc(-c2ccc3c(c2)CCC3)cc(N)c1Cl` [Compound 75, Methyl 4-amino-3-chloro-6-(5-indanyl)pyridine-2-carboxylate] in this work. A melting point of 143 °C was found for `COC(=O)c1nc(-c2ccc3c(c2)CCO3)cc(N)c1Cl` [Compound 77, Methyl 4-amino-3-chloro-6-(2,3-dihydro-5-benzofuranyl)pyridine-2-carboxylate] in this work. A melting point of 187 to 195 °C was found for `COC(=O)c1nc(-c2cc(Cl)c(C)cc2F)cc(NC(C)=O)c1Cl` [Compound 78, Methyl 4-acetamido-3-chloro-6-(5-chloro-2-fluoro-4-methylphenyl)pyridine-2-carboxylate] in this work. A melting point of 108 to 110 °C was found for `COC(=O)c1nc(-c2cc(Cl)c(C)cc2F)cc(N)c1Cl` [Compound 79, Methyl 4-amino-3-chloro-6-(5-chloro-2-fluoro-4-methylphenyl)pyridine-2-carboxylate] in this work. A melting point of 158 °C was found for `COC(=O)c1nc(-c2ccc(OC)c(C)c2)cc(N)c1Cl` [Compound 80, Methyl 4-amino-3-chloro-6-(4-methoxy-3-methylphenyl)pyridine-2-carboxylate] in this work. A melting point of 124 to 125 °C was found for `COC(=O)c1nc(-c2cc(OC)ccc2OC)cc(NC(C)=O)c1Cl` [Compound 81, Methyl 4-acetamido-3-chloro-6-(2,5-dimethoxyphenyl)pyridine-2-carboxylate] in this work. A melting point of 156 °C was found for `COC(=O)c1nc(-c2ccc(C)cc2)cc(NC(C)=O)c1Cl` [Compound 83, Methyl 4-acetamido-3-chloro-6-(4-methylphenyl)pyridine-2-carboxylate] in this work. A melting point of 177 to 178 °C was found for `COC(=O)c1nc(-c2cnn(C)c2)cc(NC(C)=O)c1Cl` [Compound 87, Methyl 4-acetamido-3-chloro-6-(1-methyl-1H-pyrazol-4-yl)pyridine-2-carboxylate] in this work. A melting point of 182 to 183 °C was found for `COC(=O)c1nc(-c2cc3ccccc3o2)cc(N)c1Cl` [Compound 96, Methyl 4-amino-3-chloro-6-(2-benzofuranyl)pyridine-2-carboxylate] in this work. A melting point of 184 to 185 °C was found for `COC(=O)c1nc(-c2cc3ccccc3s2)cc(NC(C)=O)c1Cl` [Compound 97, Methyl 4-acetamido-3-chloro-6-(2-benzothienyl)pyridine-2-carboxylate] in this work. A melting point of 143 °C was found for `COC(=O)c1nc(-c2c(C)noc2C)cc(N)c1Cl` [Compound 100, Methyl 4-amino-3-chloro-6-(3,5-dimethyl-4-isoxazolyl)pyridine-2-carboxylate] in this work. A melting point of 133 °C was found for `COC(=O)c1nc(-c2ccsc2)cc(NC(C)=O)c1Cl` [Compound 101, Methyl 4-acetamido-3-chloro-6-(3-thienyl)pyridine-2-carboxylate] in this work. A melting point of 144 to 146 °C was found for `COC(=O)c1nc(-c2cccnc2)cc(N)c1Cl` [Compound 102, Methyl 4-amino-3-chloro-6-(3-pyridyl)pyridine-2-carboxylate] in this work.

— US6784137B2, “6-aryl-4-aminopicolinates and their use as herbicides” (Dow AgroSciences LLC, priority 2001, dated 2004)
